Drawing on the supplement of paper PMC10627819, this text covers Bliss interaction score for 14 compounds.

Common to all, as to experiment: Bliss interaction score (quartile over a dose matrix) (fitness difference); higher = more antagonism (negative = synergy)
In one experiment the test system is S. aureus Newman. Put shortly: (§1)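 Growth was read as OD595 when cultures entered stationary phase, and each value was divided by the plate's robust no-drug mean and capped at 1. This normalised ratio is the fitness value, and fitness for each single drug came from the combination data. The Bliss score subtracts the expected fitness, taken as the product, from the observed fitness and is given as quartiles across technical, biological and donor/recipient replicates.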

A further experiment concerns B. subtilis 168. Put shortly:
as §1

For the next experiment, the system named is S. pneumoniae D39V. An outline of the steps: as §1
In a further experiment the test system is S. aureus DSM 20231. An outline of the steps: as §1
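Further: first quartile when negative (synergy) and third quartile when positive (antagonism).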

In the case of `CO[C@@]12[C@H](COC(N)=O)C3=C(C(=O)C(C)=C(N)C3=O)N1C[C@@H]1N[C@@H]12` [MitomycinC] + CN[C@H](CC(C)C)C(=O)N[C@H]1C(=O)N[C@@H](CC(N)=O)C(=O)N[C@H]2C(=O)N[C@H]3C(=O)N[C@H](C(=O)N[C@H](C(=O)O)c4cc(O)cc(O)c4-c4cc3ccc4O)[C@H](O[C@H]3C[C@](C)(N)[C@@H](O)[C@H](C)O3)c3ccc(c(Cl)c3)Oc3cc2cc(c3O[C@@H]2O[C@H](CO)[C@@H](O)[C@H](O)[C@H]2O[C@H]2C[C@](C)(NCc3ccc(-c4ccc(Cl)cc4)cc3)[C@@H](O)[C@H](C)O2)Oc2ccc(cc2Cl)[C@H]1O [Oritavancin], the Bliss interaction score in the experiment on S. aureus Newman was 0.0841; in the experiment with B. subtilis 168, 0.017; with S. pneumoniae D39V, -0.0514; in the experiment on S. aureus DSM 20231, -0.0806.
The like results for `CO[C@@]12[C@H](COC(N)=O)C3=C(C(=O)C(C)=C(N)C3=O)N1C[C@@H]1N[C@@H]12` [MitomycinC] + CO[C@@H]1[C@@H](OC(N)=O)[C@@H](O)[C@H](Oc2ccc3c(O)c(NC(=O)c4ccc(O)c(CC=C(C)C)c4)c(=O)oc3c2C)OC1(C)C [Novobiocin] were, in that order, -0.137, -0.117, -0.11 and -0.0588.
As for `CO[C@@]12[C@H](COC(N)=O)C3=C(C(=O)C(C)=C(N)C3=O)N1C[C@@H]1N[C@@H]12` [MitomycinC] + CO[C@H]1/C=C/O[C@@]2(C)Oc3c(C)c(O)c4c(O)c(c(/C=N/N5CCN(C)CC5)c(O)c4c3C2=O)NC(=O)/C(C)=C\C=C\[C@H](C)[C@H](O)[C@@H](C)[C@@H](O)[C@@H](C)[C@H](OC(C)=O)[C@@H]1C [Rifampicin], the Bliss interaction score is -0.0175 in the experiment with S. aureus Newman, 0.155 in the experiment on B. subtilis 168, -0.117 in the experiment on S. pneumoniae D39V and -0.0914 in the experiment with S. aureus DSM 20231.
Taken in the same sequence, the figures for `CO[C@@]12[C@H](COC(N)=O)C3=C(C(=O)C(C)=C(N)C3=O)N1C[C@@H]1N[C@@H]12` [MitomycinC] + COc1c(N2C[C@@H]3CCCN[C@@H]3C2)c(F)cc2c(=O)c(C(=O)O)cn(C3CC3)c12 [Moxifloxacin] were -0.099, 0.0263, 0.056 and 0.07.
The like results for `CO[C@@]12[C@H](COC(N)=O)C3=C(C(=O)C(C)=C(N)C3=O)N1C[C@@H]1N[C@@H]12` [MitomycinC] + COc1cc(Cc2cnc(N)nc2N)cc(OC)c1OC [Trimethoprim] were, in that order, -0.127, -0.108, -0.141 and -0.102.
Taken in the same sequence, the figures for `CO[C@@]12[C@H](COC(N)=O)C3=C(C(=O)C(C)=C(N)C3=O)N1C[C@@H]1N[C@@H]12` [MitomycinC] + COc1ccc(C[C@H](N)C(=O)N[C@H]2[C@@H](O)[C@H](n3cnc4c(N(C)C)ncnc43)O[C@@H]2CO)cc1 [Puromycin] were 0.0521, -0.0693, 0.0762 and 0.0528.
With `CO[C@@]12[C@H](COC(N)=O)C3=C(C(=O)C(C)=C(N)C3=O)N1C[C@@H]1N[C@@H]12` [MitomycinC] + C[n+]1ccc(-c2cc[n+](C)cc2)cc1 [Paraquat], the Bliss interaction score is 0.04 in the experiment with S. aureus Newman, 0.0434 in the experiment with B. subtilis 168, -0.0446 in the experiment on S. pneumoniae D39V and -0.0406 in the experiment on S. aureus DSM 20231.
On to `CO[C@@]12[C@H](COC(N)=O)C3=C(C(=O)C(C)=C(N)C3=O)N1C[C@@H]1N[C@@H]12` [MitomycinC] + Cc1cc(NS(=O)(=O)c2ccc(N)cc2)no1 [Sulfamethoxazol], for which the Bliss interaction score was 0.0863 with S. aureus Newman, 0.082 with B. subtilis 168, -0.0583 with S. pneumoniae D39V and 0.036 with S. aureus DSM 20231.
Taken in the same sequence, the figures for `CO[C@@]12[C@H](COC(N)=O)C3=C(C(=O)C(C)=C(N)C3=O)N1C[C@@H]1N[C@@H]12` [MitomycinC] + Cc1onc(-c2ccccc2)c1C(=O)N[C@@H]1C(=O)N2[C@@H]1SC(C)(C)[C@@H]2C(=O)O [Oxacillin] were 0.046, -0.0799, 0.0896 and 0.0499.
The like results for `CO[C@@]12[C@H](COC(N)=O)C3=C(C(=O)C(C)=C(N)C3=O)N1C[C@@H]1N[C@@H]12` [MitomycinC] + Cn1nnc(-c2ccc(-c3ccc(N4C[C@H](CO)OC4=O)cc3F)cn2)n1 [Tedizolid] were, in that order, -0.0886, 0.0705, -0.124 and -0.0817.
The like results for `CO[C@@]12[C@H](COC(N)=O)C3=C(C(=O)C(C)=C(N)C3=O)N1C[C@@H]1N[C@@H]12` [MitomycinC] + O=C1CN(/N=C/c2ccc([N+](=O)[O-])o2)C(=O)N1 [Nitrofurantoin] were, in that order, -0.0345, -0.0788, -0.145 and -0.0298.
With `CO[C@@]12[C@H](COC(N)=O)C3=C(C(=O)C(C)=C(N)C3=O)N1C[C@@H]1N[C@@H]12` [MitomycinC] + Oc1cc(Cl)ccc1Oc1ccc(Cl)cc1Cl [Triclosan], the Bliss interaction score is -0.0343 with S. aureus Newman, -0.0544 in the experiment on B. subtilis 168, 0.0578 in the experiment with S. pneumoniae D39V and -0.025 with S. aureus DSM 20231.
Taken in the same sequence, the figures for `CO[C@@H]1[C@@H](OC(N)=O)[C@@H](O)[C@H](Oc2ccc3c(O)c(NC(=O)c4ccc(O)c(CC=C(C)C)c4)c(=O)oc3c2C)OC1(C)C` [Novobiocin] + C/C(=C\C(=O)OCCCCCCCCC(=O)O)C[C@@H]1OC[C@H](C[C@@H]2O[C@H]2[C@@H](C)[C@H](C)O)[C@@H](O)[C@H]1O [Pseudomonic acid] were -0.0166, -0.0516, 0.241 and -0.0173.
Taken in the same sequence, the figures for `CO[C@@H]1[C@@H](OC(N)=O)[C@@H](O)[C@H](Oc2ccc3c(O)c(NC(=O)c4ccc(O)c(CC=C(C)C)c4)c(=O)oc3c2C)OC1(C)C` [Novobiocin] + CC1(C)S[C@@H]2[C@H](NC(=O)Cc3ccccc3)C(=O)N2[C@H]1C(=O)O [PenicillinG] were -0.0408, 0.0716, -0.0976 and -0.0356.
